In patent publication US12630497B2, “Compound having malate dehydrogenase inhibitory activity and pharmaceutical composition for preventing or treating cancer comprising same as active ingredient” (DONGGUK UNIVERSITY INDUSTRY-ACADEMIC COOPERATION FOUNDATION, priority 2017, dated 2026):

How the values were obtained:
MDH2 = target: T1, MDH2 (Homo sapiens, UniProt P40926); experiment: MDH2 inhibitory activity (in vitro, NADH oxidation, absorbance 340 nm); assay type: biochemical; details: 0.25 nM MDH2 recombinant protein, 200 μM oxaloacetate, 30 minutes
T1 construct: inferred from pET28a vector and Ni-NTA purification) with TEV site (cleaved yes); made in house; host or cells: E. coli Rosetta 2 (DE3)
T1 sequence (P40926 25-338): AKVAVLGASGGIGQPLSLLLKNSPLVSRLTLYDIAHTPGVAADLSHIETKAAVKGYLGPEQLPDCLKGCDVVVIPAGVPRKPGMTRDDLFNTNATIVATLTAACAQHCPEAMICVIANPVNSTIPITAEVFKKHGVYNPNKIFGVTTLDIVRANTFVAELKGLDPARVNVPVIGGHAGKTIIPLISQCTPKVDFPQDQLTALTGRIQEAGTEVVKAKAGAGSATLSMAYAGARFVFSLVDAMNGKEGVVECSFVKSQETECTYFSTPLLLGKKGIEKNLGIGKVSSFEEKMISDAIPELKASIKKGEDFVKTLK
Protocol: To verify the MDH2 inhibitory activity of the compound prepared according to Example 1, an MDH2 recombinant protein was prepared. The MDH2 gene was purchased from Korean Human Gene Bank (KUGI, NM_005918), amplified by PCR, and then cloned using a pET28a vector (Merck, Germany). Afterward, the plasmid vector was introduced into E. coli Rosetta 2 (DE3), and an MDH2 recombinant protein was overexpressed by IPTG treatment.
(§1) The inhibitory activity of the prepared compounds against MDH1 recombinant protein and the MDH2 recombinant proteins prepared in each of Experimental Examples 1-1, 1-2, 1-3 and 1-4 was measured. More specifically, 0.25 nM MDH1 recombinant protein (Biovision) or MDH2 recombinant protein was added to 200 μM oxaloacetate, nicotinamide adenine dinucleotide (NADH), the compound prepared in Example 1 and an MDH assay buffer (100 mM potassium phosphate, pH 7.4) to allow a reaction for 30 minutes. Afterward, a change in NADH concentration in the solution due to NADH oxidation (NAD^+) by an MDH1 or MDH2 enzyme was analyzed by measuring absorbance at 340 nm.

MDH1 = target: T2, MDH1 (Homo sapiens, UniProt P40925); experiment: MDH1 inhibitory activity (in vitro, NADH oxidation, absorbance 340 nm); assay type: biochemical; set-up: purchased Biovision; details: 0.25 nM MDH1 recombinant protein, 200 μM oxaloacetate, 30 minutes
T2 sequence (P40925 1-334): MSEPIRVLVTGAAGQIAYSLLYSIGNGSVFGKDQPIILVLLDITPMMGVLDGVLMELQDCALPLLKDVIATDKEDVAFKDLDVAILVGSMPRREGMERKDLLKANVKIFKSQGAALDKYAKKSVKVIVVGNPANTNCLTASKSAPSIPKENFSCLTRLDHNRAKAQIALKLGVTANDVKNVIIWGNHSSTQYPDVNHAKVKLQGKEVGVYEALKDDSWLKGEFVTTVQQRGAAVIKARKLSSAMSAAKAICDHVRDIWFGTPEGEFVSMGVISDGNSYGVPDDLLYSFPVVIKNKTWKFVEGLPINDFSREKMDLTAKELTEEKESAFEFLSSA
Protocol: as §1

Structure (SMILES): COC(=O)c1ccc(O)c(NC(=O)CCOc2ccc(C(C)(C)CC(C)(C)C)cc2)c1 [Compound 9-3, Methyl 4-hydroxy-3-(3-(4-(2,4,4-trimethylpentan-2-yl)phenoxy)propanamido)benzoate]
- IC50 (MDH2): 1 to 5 µM
- IC50 (MDH1): 1 to 5 µM

Structure (SMILES): COC(=O)c1ccc(C)c(NC(=O)CCOc2ccc(C(C)(C)CC(C)(C)C)cc2)c1 [Compound 9-4, Methyl 4-methyl-3-(3-(4-(2,4,4-trimethylpentan-2-yl)phenoxy)propanamido)benzoate]
- IC50 (MDH2): 5 to 10 µM
- IC50 (MDH1): 5 to 10 µM

Structure (SMILES): COC(=O)c1cc(NC(=O)CCOc2ccc(C(C)(C)CC(C)(C)C)cc2)ccc1C [Compound 9-5, Methyl 2-methyl-5-(3-(4-(2,4,4-trimethylpentan-2-yl)phenoxy)propanamido)benzoate]
- IC50 (MDH2): > 10 µM
- IC50 (MDH1): > 10 µM

Structure (SMILES): COC(=O)c1cc(NC(=O)CCOc2ccc(C(C)(C)CC(C)(C)C)cc2)ccc1O [Compound 9-6, Methyl 2-hydroxy-5-(3-(4-(2,4,4-trimethylpentan-2-yl)phenoxy)propanamido)benzoate]
- IC50 (MDH2): > 10 µM
- IC50 (MDH1): > 10 µM

Structure (SMILES): CC(C)OC(=O)c1cccc(NC(=O)CCOc2ccc(C(C)(C)CC(C)(C)C)cc2)c1 [Compound 9-7, Isopropyl 3-(3-(4-(2,4,4-trimethylpentan-2-yl)phenoxy)propanamido)benzoate]
- IC50 (MDH2): > 10 µM
- IC50 (MDH1): > 10 µM

Structure (SMILES): COC(=O)c1cncc(NC(=O)CCOc2ccc(C(C)(C)CC(C)(C)C)cc2)c1 [Compound 9-8, Methyl 5-(3-(4-(2,4,4-trimethylpentan-2-yl)phenoxy)propanamido)nicotinate]
- IC50 (MDH2): 5 to 10 µM
- IC50 (MDH1): 5 to 10 µM

Structure (SMILES): CC(C)(C)CC(C)(C)c1ccc(OCCC(=O)Nc2cccc(C(=O)N3CCOCC3)c2)cc1 [Compound 9-9, N-(3-(morpholine-4-carbonyl)phenyl)-3-(4-(2,4,4-trimethylpentan-2-yl)phenoxy)propanamide]
- IC50 (MDH2): > 10 µM
- IC50 (MDH1): > 10 µM

Structure (SMILES): CCOC(=O)CNC(=O)c1cccc(NC(=O)CCOc2ccc(C(C)(C)CC(C)(C)C)cc2)c1 [Compound 9-10, Ethyl 2-(3-(3-(4-(2,4,4-trimethylpentan-2-yl)phenoxy)propanamido)benzamido)acetate]
- IC50 (MDH2): > 10 µM
- IC50 (MDH1): > 10 µM

Structure (SMILES): COC(=O)[C@@H](NC(=O)c1cccc(NC(=O)CCOc2ccc(C(C)(C)CC(C)(C)C)cc2)c1)C(C)C [Compound 9-11, (S)-methyl 3-methyl-2-(3-(3-(4-(2,4,4-trimethylpentan-2-yl)phenoxy)propanamido)benzamido)butanoate]
- IC50 (MDH2): > 10 µM
- IC50 (MDH1): > 10 µM
